In US20060122153A1, “Antineoplastic ether lipid compounds with modifications at the sn-2 carbon” (priority 2003, published 2006):
Several values for one entry are separate records, joined by “and”; a condition that tells them apart may be missing. Equal values may be shown once.

What was measured:
[1] = system: platelets in dog whole blood
Description: Briefly, whole citrated blood is diluted 1:2 with sterile saline and placed in a warm chamber with a mini stir bar. An electronic probe, measuring electrical resistance, is inserted in the sample. The aggregometer is calibrated and the baseline is observed to detect any spontaneous aggregation. The test sample is added and allowed to run for at least 6 minutes. If the sample is an agonist the platelets will start to aggregate and stick to the electronic probe causing resistance across the electrodes to increase. This resistance, in ohms, is measured 6 minutes post addition of sample. The test samples are run at 25, 100, 200, 400 and 800 uM and compared to 100 uM L-ET-18-OCH3.
Collection of Blood Sample for in vitro Platelet Aggregation Testing: Venous blood is collected in 4.5 mL Vacutainer tubes containing 0.129 M sodium citrate using a 21G needle or larger. Blood is immediately mixed by gentle inversion 15-20 times and kept at room temperature. Dilution ratio is 1 to 9 (3.8% citrate solution:blood). One (2.0 mL) Vacutainer tube containing EDTA is also collected for platelet counts. Complete blood counts (CBC) are measured on the CDC Technologies Hemavet 1500 to ensure that the test subject's platelets are within normal range. Amy vials of hemolytic blood or blood containing any clots should be discarded. Platelet aggregation testing must be completed within 3 hours of blood collection. After this time the ability of platelets to aggregate decreases.
Dilutions were prepared in PBS or saline at 40× concentration. (25 uL test sample are added to 1000 uL diluted blood (1:40)).

NIH-3T3 = experiment: In vitro growth inhibition (GI50), SRB assay, normal fibroblast; assay type: cell-based, mouse; conditions: NIH-3T3 normal murine fibroblast cell line, 3 days
Source text: The following cell lines were selected from the cell bank for screening and GI50 studies: MCF-7: human breast tumor, MCF-7/ADR: MCF-7 adriamycin resistant subline, HT-29: human colon carcinoma, A-549: human non-small cell lung cancer, NIH-3T3: mouse Swiss embryo fibroblast and WI-38: human lung fibroblast, SKMEL-28: human melanoma, Lewis Lung: mouse lung carcinoma, DU-145: prostate carcinoma, B16F10: mouse melanoma, L1210: murine lymphocytic leukemia, P-388: murine leukemia, U-937: human histolytic lymphoma. Except HT-29, WI-38, NIH-3T3 and Lewis Lung which were obtained from the American Type Culture Collection (Rockville, Md.) all the other cell lines were obtained from National Cancer Institute—Frederick Research Facility (Frederick, Md.). All the cell lines were grown in RPMI-1640 medium containing 10% fetal bovine serum (FBS) except WI-38 and DU-145 which were grown in EMEM+10% FBS at 37° C., 5% CO2 and 100% humidity and NIH-3T3, Lewis Lung, B16F10 and L1210 which were grown in DMEM containing 10% FBS (10% HS for L1210). […]
The test compounds were made in-house and the compounds were dissolved PBS or saline at a stock concentration of approximately 20 mM, which is 400 times the desired final maximum test concentration. […] After 3 days of incubation, cell growth was determined.
The SRB assay was performed as described by Monks, A., Scudiero, D., Skehan, P., Shoemaker, R., Paull, K., Vistica, D., Hose, C., Langley, J., Cronise, P., and Vaigro-Wolff, A. Feasibility of a high-flux anticancer drug screen using a diverse panel of cultured human tumo-r cell lines. […] Bound SRB was solubilized with Tris buffer (10 mM), and the ODs were read using an automated plate reader (Bio-Rad, Model 3550-UV) at 490 nm. Background values were subtracted from the test data, and the data was calculated as a % of control. […] Percentage growth was calculated as described by, Peters, A. C., Ahmad, I., Janoff, A. S., Pushkareva, M. Y., and Mayhew, E. Growth Inhibitory effects of liposome-associated 1-o-octadecyl-2-o-methyl-sn-glycero-3-phosphocholine. […]

[2] = system: washed human red blood cells; experiment: Hemolysis assay with washed human red blood cells; assay type: cell-based; conditions: washed human RBCs; for H10: concentration producing 10% hemolysis; for H50: concentration producing 50% hemolysis
Description: The blood was transferred from 1 EDTA tube to a 50 mL conical tissue culture tube and the volume was brought up to 50 mL with PBS.
The blood was centrifuged for 10 minutes at 1500 RPM. The supernatant was removed and the blood was resuspended up to 50 mL with PBS. Next the blood was centrifuged for 10 minutes at 1500 RPM.
The supernatant was removed, and 2.0 mL of packed red blood cells was carefully transferred, using positive displacement pipet, into a fresh conical tissue culture tube. Next, 48 mL PBS was added to achieve a 4% washed RBC solution.
Next, 25, 50, 100 and 200 uM stock solutions of test sample in phosphate buffered saline (PBS) as follows:
Next, 0.5 mL of 4% washed RBC was added to 0.5 mL test sample dilutions (in duplicate). The final concentration of test sample was 50% of working stock solution.
The samples were capped or sealed with Parafilm and the samples were gently mixed. […] The samples were centrifuged for 10 minutes at 1500 RPM. […] Absorbance was measured at 550 nm vs. a water blank. Next, H10 and H50 were determined by graphing Absorbance vs. Test Sample Concentration.

MALME-3M = experiment: NCI growth inhibition screen, melanoma panel; assay type: cell-based, human; set-up: key to Performance as compared to ET-18-O—CH3: = means equivalent activity; + means that it appears to be significantly better (i.e., by ˜2x); < means it appears to be less active than ET18OCH3 (˜2x); a combination like =/+ or </+ means that activity is dependent upon the isomer; a combination like =/+ or </+ means that activity is dependent upon the isomer; conditions: for Performance as compared to ET-18-O—CH3: MALME-3M, Melanoma, from GI50s; for activity compared to ET-18-OCH3 (in words): melanoma MALME-3M cell line, NCI screen
Description: Candidates deemed suitable for in vivo testing were then synthesized in large scale quantities and some of this material was sent to the NCI's Developmental Therapeutics Program for a battery of growth inhibitory studies against various human tumor cell lines (60 cell lines, 9 different panels). The remainder of the material was used to assess in vivo efficacy using murine tumor models. Additionally, studies were conducted on the lead candidates to discern mechanism of action with particular emphasis on these agents apoptotic ability as measured by caspase 3 activity. The details (materials and methods) for these various assays are described further in the following discussion.
Ten compounds were also sent to NCI's Drug Discovery Program for screening against numerous human tumor cell lines (9 panels total: renal ovarian, colon, CNS, non-small cell lung, leukemia, breast, melanoma, and prostate). The data are shown in FIGS. 2a-i which also include data regarding D- and L-ET-18-OCH3 (listed as L-EL and D-EL in the figures). Upon examining the data, one is struck by how 1R and 1a′S standout in comparison to the other compounds, especially for the renal, ovarian, colon, and CNS panels.

| Structure (SMILES) | Platelet aggregation [1] | platelet aggregation response (in words) [1] | GI50 (NIH-3T3) | H10 [2] | H50 [2] | Performance as compared to ET-18-O—CH3 (MALME-3M) | activity compared to ET-18-OCH3 (in words) (MALME-3M) |
| --- | --- | --- | --- | --- | --- | --- | --- |
| CCCCCCCCCCCCCCCCCCOCC(COP(=O)([O-])OCC[N+](C)(C)C)OC [D-ET18OCH3, 1-O-octadecyl-2-O-methyl-glycerophosphocholine, reference compound] | − | doesn't elicit an aggregation response | 41.4 µM |  |  |  |  |
| CCCCCCCCCCCCCCCCCCOC[C@@H](COP(=O)([O-])OCC[N+](C)(C)C)OS(C)(=O)=O [1a′S] |  |  | 30.3 µM and 35.2 µM | 16.5 µM | 21.5 µM | 0 | ET-18-OCH3 was more active |
| CCCCCCCCCCCCCCCCCCOCC(COP(=O)([O-])OCC[N+](C)(C)C)OS(C)(=O)=O (stereo not drawn) [Compound 1aR] |  |  |  | 16 µM and 13 µM | 21.5 µM and 17 µM | < | ET-18-OCH3 was more active |
